Where “and” joins values, the source holds several entries; their conditions need not be identical. Equal values may be shown once. Read-outs that look alike come from different tables or passages of the source.
Experiments:
hCB1 [1] = molecular target: T1, hCB1 (Homo sapiens, UniProt P21554); assay: bioSensAll ebBRET signaling profiling, hCB1; assay type: cell-based; set-up: host or cells: HEK293SL cells, transient PEI transfection; conditions: for RE, relative efficacy: vs CP-55,940; for EC50: read-out: EC50 [95% CI]; for Emax: normalized to CP-55,940
hCB1 [2] = molecular target: T1, hCB1; assay: Lance Ultra cAMP accumulation assay, CHO cells; assay type: cell-based; set-up: expressed in transfected cells; conditions: for normalised cAMP response, concentration-response (Figure2f), replicate values: log[Compound;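 for all read-outs here: human CB1R stably expressed in CHO cells, ligands co-incubated with forskolin at room temperature, read-out is lowering of forskolin-stimulated cAMP accumulation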

T1 sequence (P21554 whole entry): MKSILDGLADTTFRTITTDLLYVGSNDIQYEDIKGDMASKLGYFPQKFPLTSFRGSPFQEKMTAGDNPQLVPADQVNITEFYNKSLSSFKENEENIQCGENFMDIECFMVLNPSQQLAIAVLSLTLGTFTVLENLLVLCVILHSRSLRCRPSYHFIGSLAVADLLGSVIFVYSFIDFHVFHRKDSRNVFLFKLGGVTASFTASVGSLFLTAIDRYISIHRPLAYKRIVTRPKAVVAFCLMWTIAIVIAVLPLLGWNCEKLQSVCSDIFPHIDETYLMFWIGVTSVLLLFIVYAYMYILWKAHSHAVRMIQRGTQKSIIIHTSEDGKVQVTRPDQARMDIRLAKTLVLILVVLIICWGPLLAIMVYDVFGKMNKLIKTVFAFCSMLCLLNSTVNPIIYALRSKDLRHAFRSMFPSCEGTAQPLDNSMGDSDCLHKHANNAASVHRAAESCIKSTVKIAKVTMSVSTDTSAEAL

COC(=O)[C@@](C)(NC(=O)c1cc(C)n(-c2cccc(C(F)(F)F)c2)n1)c1cccs1 [‘1350]
Barr2+GRK2 hCB1 (hCB1 [1]; Log [Compound] (M) -8.22186): 55.5534 and 36.0388 and 57.0671 | G13 hCB1 (hCB1 [1]; Log [Compound] (M) -8.22186): 68.4414 and 35.9312 | G15 hCB1 (hCB1 [1]; Log [Compound] (M) -8.22186): 108.751 and 98.1326 | Gi1 hCB1 (hCB1 [1]; Log [Compound] (M) -8.22186): 92.6788 and 89.3236 and 99.6444 | Gi2 hCB1 (hCB1 [1]; Log [Compound] (M) -8.22186): 103.598 and 95.5013 | GoB hCB1 (hCB1 [1]; Log [Compound] (M) -8.22186): 98.7737 and 93.6765 | Gq hCB1 (hCB1 [1]; Log [Compound] (M) -8.22186): 1076 | Gs hCB1 (hCB1 [1]; Log [Compound] (M) -8.22186): 6277 | Gz hCB1 (hCB1 [1]; Log [Compound] (M) -8.22186): 86.1167 and 125.84 | Barr2+GRK2 hCB1 (hCB1 [1]; Log [Compound] (M) -8.39794): 29.9976 and 37.6342 and 37.3728 | G15 hCB1 (hCB1 [1]; Log [Compound] (M) -8.39794): 102.447 and 90.505 | Gi1 hCB1 (hCB1 [1]; Log [Compound] (M) -8.39794): 89.9355 and 81.3893 and 90.8265 | Gi2 hCB1 (hCB1 [1]; Log [Compound] (M) -8.39794): 93.2678 and 81.238 | GoB hCB1 (hCB1 [1]; Log [Compound] (M) -8.39794): 91.7888 and 85.5166 and 90.3229 | Gq hCB1 (hCB1 [1]; Log [Compound] (M) -8.39794): 1079 | Gs hCB1 (hCB1 [1]; Log [Compound] (M) -8.39794): 6774 | Gz hCB1 (hCB1 [1]; Log [Compound] (M) -8.39794): 90.3591 and 90.0229 | G13 hCB1 (hCB1 [1]; Log [Compound] (M) -8.68787): 53.1584 and 35.4081 | G15 hCB1 (hCB1 [1]; Log [Compound] (M) -8.68787): 102.996 and 87.3488 | Gi1 hCB1 (hCB1 [1]; Log [Compound] (M) -8.68787): 91.5518 and 80.8983 and 96.1797 | Gi2 hCB1 (hCB1 [1]; Log [Compound] (M) -8.68787): 100.616 and 73.0934 | GoB hCB1 (hCB1 [1]; Log [Compound] (M) -8.68787): 87.9026 and 94.3015 and 102.463 | Gq hCB1 (hCB1 [1]; Log [Compound] (M) -8.68787): 1093 | Gs hCB1 (hCB1 [1]; Log [Compound] (M) -8.68787): 6188 | Gz hCB1 (hCB1 [1]; Log [Compound] (M) -8.68787): 71.525 and 105.899 | G13 hCB1 (hCB1 [1]; Log [Compound] (M) -9.15521): 29.8642 and 17.8839 | G15 hCB1 (hCB1 [1]; Log [Compound] (M) -9.15521): 73.5984 and 77.2225 | Gi1 hCB1 (hCB1 [1]; Log [Compound] (M) -9.15521): 81.1718 and 69.1157 and 80.6507 | Gi2 hCB1 (hCB1 [1]; Log [Compound] (M) -9.15521): 77.4138 and 61.2639 | GoB hCB1 (hCB1 [1]; Log [Compound] (M) -9.15521): 71.2656 and 63.2418 and 86.0488 | Gq hCB1 (hCB1 [1]; Log [Compound] (M) -9.15521): 979 | Gs hCB1 (hCB1 [1]; Log [Compound] (M) -9.15521): 6053 | Gz hCB1 (hCB1 [1]; Log [Compound] (M) -9.15521): 50.0303 and 83.0974 | G15 hCB1 (hCB1 [1]; Log [Compound] (M) -9.61989): 46.4936 and 49.8683 | Gi1 hCB1 (hCB1 [1]; Log [Compound] (M) -9.61989): 46.5026 and 32.8966 and 52.9951 | Gi2 hCB1 (hCB1 [1]; Log [Compound] (M) -9.61989): 46.1296 and 39.0463 | GoB hCB1 (hCB1 [1]; Log [Compound] (M) -9.61989): 41.2683 and 36.2447 and 42.156 | Gq hCB1 (hCB1 [1]; Log [Compound] (M) -9.61989): 993 | Gs hCB1 (hCB1 [1]; Log [Compound] (M) -9.61989): 6331 | G15 hCB1 (hCB1 [1]; Log [Compound] (M) -10.0969): 22.2784 and 20.2785 | Gi2 hCB1 (hCB1 [1]; Log [Compound] (M) -10.0969): 20.3201 and 12.6408 | GoB hCB1 (hCB1 [1]; Log [Compound] (M) -10.0969): 15.6017 and 12.0427 and 18.9365 | Gq hCB1 (hCB1 [1]; Log [Compound] (M) -10.0969): 1040 | Gs hCB1 (hCB1 [1]; Log [Compound] (M) -10.0969): 6351 | G15 hCB1 (hCB1 [1]; Log [Compound] (M) -10.5529): 10.1469 and 8.811 | Gq hCB1 (hCB1 [1]; Log [Compound] (M) -10.5529): 1032 | Gs hCB1 (hCB1 [1]; Log [Compound] (M) -10.5529): 6578 | Gq hCB1 (hCB1 [1]; Log [Compound] (M) -11.0177): 1054 | Gs hCB1 (hCB1 [1]; Log [Compound] (M) -11.0177): 6308 | Gq hCB1 (hCB1 [1]; Log [Compound] (M) -11.4949): 1050 | Gs hCB1 (hCB1 [1]; Log [Compound] (M) -11.4949): 6446 | Gq hCB1 (hCB1 [1]; Log [Compound] (M) -11.9208): 1129 | Gs hCB1 (hCB1 [1]; Log [Compound] (M) -11.9208): 6648 | Gq hCB1 (hCB1 [1]; Log [Compound] (M) -12.3979): 1059 | Gs hCB1 (hCB1 [1]; Log [Compound] (M) -12.3979): 6648 | Gq hCB1 (hCB1 [1]; Log [Compound] (M) -12.8861): 1070 | Gs hCB1 (hCB1 [1]; Log [Compound] (M) -12.8861): 6918 | pEC50 [95% CI] (hCB1 [1]; hCB1 G13): 9.08 [8.6 – 9.6] | RE, relative efficacy (hCB1 [1]; hCB1 G13): 1.64 | RE, relative efficacy (hCB1 [1]; hCB1 G15): 1.14 | pEC50 [95% CI] (hCB1 [1]; hCB1 Gi1): 9.63 [9.5 – 9.7] | RE, relative efficacy (hCB1 [1]; hCB1 Gi1): 1.98 | RE, relative efficacy (hCB1 [1]; hCB1 Gi2): 1.89 | RE, relative efficacy (hCB1 [1]; hCB1 GoB): 2.24 | RE, relative efficacy (hCB1 [1]; hCB1 Gz): 0.77 | RE, relative efficacy (hCB1 [1]; hCB1 ßarr2+GRK2): 1.16 | EC50 (hCB1 [1]; hCB1 Barr2 + GRK2): 2.2 nM | EC50 (hCB1 [1]; hCB1 G13): 0.83 nM | EC50 (hCB1 [1]; hCB1 G15): 0.22 nM | EC50 (hCB1 [1]; hCB1 Gi1): 0.23 nM | EC50 (hCB1 [1]; hCB1 Gi2): 0.28 nM | EC50 (hCB1 [1]; hCB1 GoB): 0.29 nM | EC50 (hCB1 [1]; hCB1 Gz): 0.35 nM | Emax (hCB1 [1]; read-out: Emax [95% CI], hCB1 Barr2 + GRK2): 63% | Emax (hCB1 [1]; read-out: Emax [95% CI], hCB1 G13): 56% | Emax (hCB1 [1]; read-out: Emax [95% CI], hCB1 G15): 99% | Emax (hCB1 [1]; read-out: Emax [95% CI], hCB1 Gi1): 92% | Emax (hCB1 [1]; read-out: Emax [95% CI], hCB1 Gi2): 95% | Emax (hCB1 [1]; read-out: Emax [95% CI], hCB1 GoB): 98% | Emax (hCB1 [1]; read-out: Emax [95% CI], hCB1 Gz): 94% | Lance Ultra cAMP pEC50 (hCB1 [2]): 8.8 [8.4 – 9.2] | Emax (hCB1 [2]; CHO): 77% | agonism, inhibition of forskolin-stimulated cAMP (hCB1 [2]; hCB1-expressing cells, in words): agonists | normalised cAMP response, concentration-response (Figure2f), replicate values (hCB1 [2]; M] -5): -4.858 and 11.635 and 22.5761 and 22.3192 and 16.0513 | normalised cAMP response, concentration-response (Figure2f), replicate values (hCB1 [2]; M] -6): 0.02957 and 13.0032 and 24.8348 and 23.4809 and 19.7873 | normalised cAMP response, concentration-response (Figure2f), replicate values (hCB1 [2]; M] -7): -1.176 and 11.2775 and 31.1162 and 23.9321 and 21.5823 | normalised cAMP response, concentration-response (Figure2f), replicate values (hCB1 [2]; M] -8): 4.023 and 6.478 and 36.7172 and 38.802 and 36.5532 | normalised cAMP response, concentration-response (Figure2f), replicate values (hCB1 [2]; M] -9): 33.486 and 46.5508 and 80.4827 and 77.993 and 76.9862 | normalised cAMP response, concentration-response (Figure2f), replicate values (hCB1 [2]; M] -10): 57.5574 and 85.1374 and 96.2204 and 101.985 and 96.4953 | normalised cAMP response, concentration-response (Figure2f), replicate values (hCB1 [2]; M] -11): 67.5707 and 85.3574 and 95.6722 and 97.0187 and 98.6477 | normalised cAMP response, concentration-response (Figure2f), replicate values (hCB1 [2]; M] -12): 65.6738 and 93.8429 and 115.239 and 106.805 and 95.2537

Reference: paper PMC11882969 (Nature Communications, 2025)
